≈ marks a conversion by molar mass, not a printed value. Read-outs that look alike come from different tables or passages of the source.
Assays:
Botrtyis cinerea (Bc) = assay: Growth inhibition assay of fungal pathogens, Bc; format: cell-based; details: 48 h, growth inhibition at 48 hours vs 2% DMSO control
Protocol: (§1) Compounds of the present invention were evaluated in a growth inhibition assay to determine the ability to control the growth of fungal pathogens, such as Botrtyis cinerea (Bc), Collectotrichum graminicola (Cg), Diplodia maydis (Dm), Fusarium moniliforme (Fm), Fusarium virguliforme (Fv), Phytophthora capsici (Pc), Rhizoctonia solani (Rs), and Septoria tritici (St).
(§2) Compounds to be tested were dissolved in DMSO at 2.5 mg/ml to produce compound stock solutions (“stocks”). Stocks were diluted with DMSO by a five-fold dilution in a 96-well stock plate, and two sets of final concentrations of 50, 10, and 2 ppm or 2, 0.4, and 0.08 ppm were obtained in vitro. A set of positive controls was also prepared, with various concentrations of Soraphen (2, 0.4, and 0.08 ppm), Metalaxyl (1.1, 0.22, and 0.04 ppm), and Metconazole (2, 0.4, and 0.08 ppm or 0.2, 0.04, and 0.008 ppm) after the five-fold dilutions. Negative controls on each plate included 2% DMSO, water, and a blank (media+2% DMSO).
(§3) Fungal spores were isolated from previously sub-cultured plates of Botrtyis cinerea (Bc), Collectotrichum graminicola (Cg), Diplodia maydis (Dm), Fusarium moniliforme (Fm), Fusarium virguliforme (Fv), Phytophthora capsici (Pc), and Septoria tritici (St). The isolated spores were diluted to individual concentrations with a 17% V8 liquid media. For Rhizoctonia solani (Rs) and Pythium irregulare, 1.5 mm mycelial plugs were used in place of spores and/4 Potato Dextrose Broth (PDB) was used for dilution. The spore concentrations and plug sizes were based on growth curves generated at 48 hours for each pathogen.
(§4) In a second 96-well plate, the spores or mycelial plugs, media, diluted compound solutions, and controls were combined. Once the compound was added, a true final concentration of compound in each well was measured by an OD600 reading, which adjusted for any compound precipitation that might have occurred in the well. Plate readings were repeated at both 24 and 48 hours. The blank negative control was used as a background subtraction. Additional visual ratings were performed at both 24 and 48 hours for checking on precipitation and confirming efficacy. Visual and OD600 ratings of the compounds at 48 hours were compared to the 2% DMSO negative control, and the percent of pathogen growth inhibition was determined based on those values.

[1] = test system: Fusarium virguliforme (Fv); assay: Growth inhibition assay of fungal pathogens, Fv; format: cell-based; details: 48 h
Protocol: as §1, §2, §3, §4

fungal (fACC2) = fungal (fACC2) (UniProt Q00955); details: read-out: fACC2 (in vitro ACC2 Inhibition Assay, IC50), ADP-Glo, 5 nM ACC2, 20 μM ATP, 20 μM acetyl-CoA
C. parapsilosis = assay: Antifungal Activity Assay (broth microtiter MIC), C. parapsilosis; format: cell-based, Candida parapsilosis; details: Lodderomyces parapsilosis, ATCC22019, 48 h
How it was run: (§5)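 MIC read by eye at 48 h, comparing challenged wells with the growth control. Yeasts grown overnight on Sabouraud dextrose agar at 35° C, suspended in RPMI 1640+MOPS and added at 2.5×10^3 CFU/mL final, following CLSI M27-A3.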

Rhizoctonia solani (Rs) = assay: Growth inhibition assay of fungal pathogens, Rs; format: cell-based; details: 48 h
C. albicans = assay: Antifungal Activity Assay (broth microtiter MIC), C. albicans; format: cell-based, Candida albicans; details: Candida albicans, ATCC90028, 48 h
How it was run: as §5

[2] = test system: Fusarium moniliforme (Fm); assay: Growth inhibition assay of fungal pathogens, Fm; format: cell-based; details: Fusarium verticillioides, 48 h, read-out: Concentration at 90% Inhibition Fm
Protocol: as §1, §2, §3, §4

human (hACC2) = human (hACC2) (Homo sapiens, UniProt O00763); assay: In vitro ACC inhibition assay (ADP-Glo), hACC2; format: biochemical; details: 5 nM ACC2, 20 μM ATP, 20 μM acetyl-CoA
Protocol: The detailed procedure is as follows. […] 10 μL ADP glo reagent was added. […] 20 μL kinase detection reagent was added.

[3] = test system: Collectotrichum graminicola (Cg); assay: Growth inhibition assay of fungal pathogens, Cg; format: cell-based; details: 48 h, growth inhibition at 48 hours vs 2% DMSO control
Protocol: as §1, §2, §3, §4

Septoria tritici (St) = assay: Growth inhibition assay of fungal pathogens, St; format: cell-based; details: Zymoseptoria tritici, 48 h, growth inhibition at 48 hours vs 2% DMSO control
Protocol: as §1, §2, §3, §4

Diplodia maydis (Dm) = assay: Growth inhibition assay of fungal pathogens, Dm; format: cell-based; details: Stenocarpella maydis, 48 h, growth inhibition at 48 hours vs 2% DMSO control
Protocol: as §1, §2, §3, §4

C. krusei = assay: Antifungal Activity Assay (broth microtiter MIC), C. krusei; format: cell-based, Candida krusei; details: Pichia kudriavzevii, ATCC6258, 48 h
How it was run: as §5

[4] = test system: Phytophthora capsici (Pc); assay: Growth inhibition assay of fungal pathogens, Pc; format: cell-based; details: 48 h
Protocol: as §1, §2, §3, §4

[5] = read-out: Concentration at 90% Inhibition Bc, Botrtyis cinerea
[6] = read-out: Concentration at 90% Inhibition Fv, Fusarium virguliforme, growth inhibition at 48 hours vs 2% DMSO control
[7] = read-out: MIC, C. parapsilosis ATCC 22019, Table 3a, 3 replicates, MIC recorded at 48 h
[8] = read-out: MIC, C. parapsilosis ATCC 22019, Table 3b (additional results), 3 replicates, MIC recorded at 48 h
[9] = read-out: Concentration at 90% Inhibition Rs, Rhizoctonia solani, mycelial plugs, growth inhibition at 48 hours vs 2% DMSO control
[10] = read-out: MIC, C. albicans ATCC 90028, Table 3a, 3 replicates, MIC recorded at 48 h
[11] = read-out: MIC, C. albicans ATCC 90028, Table 3b (additional results), 3 replicates, MIC recorded at 48 h
[12] = read-out: Concentration at 90% Inhibition Cg, Collectotrichum graminicola
[13] = read-out: Concentration at 90% Inhibition St, Septoria tritici
[14] = read-out: Concentration at 90% Inhibition Dm, Diplodia maydis
[15] = read-out: MIC, C. krusei ATCC 6258, Table 3a, 3 replicates, MIC recorded at 48 h
[16] = read-out: MIC, C. krusei ATCC 6258, Table 3b (additional results), 3 replicates, MIC recorded at 48 h
[17] = read-out: Concentration at 90% Inhibition Pc, Phytophthora capsici, growth inhibition at 48 hours vs 2% DMSO control

human (hACC2), sequence (O00763 whole entry): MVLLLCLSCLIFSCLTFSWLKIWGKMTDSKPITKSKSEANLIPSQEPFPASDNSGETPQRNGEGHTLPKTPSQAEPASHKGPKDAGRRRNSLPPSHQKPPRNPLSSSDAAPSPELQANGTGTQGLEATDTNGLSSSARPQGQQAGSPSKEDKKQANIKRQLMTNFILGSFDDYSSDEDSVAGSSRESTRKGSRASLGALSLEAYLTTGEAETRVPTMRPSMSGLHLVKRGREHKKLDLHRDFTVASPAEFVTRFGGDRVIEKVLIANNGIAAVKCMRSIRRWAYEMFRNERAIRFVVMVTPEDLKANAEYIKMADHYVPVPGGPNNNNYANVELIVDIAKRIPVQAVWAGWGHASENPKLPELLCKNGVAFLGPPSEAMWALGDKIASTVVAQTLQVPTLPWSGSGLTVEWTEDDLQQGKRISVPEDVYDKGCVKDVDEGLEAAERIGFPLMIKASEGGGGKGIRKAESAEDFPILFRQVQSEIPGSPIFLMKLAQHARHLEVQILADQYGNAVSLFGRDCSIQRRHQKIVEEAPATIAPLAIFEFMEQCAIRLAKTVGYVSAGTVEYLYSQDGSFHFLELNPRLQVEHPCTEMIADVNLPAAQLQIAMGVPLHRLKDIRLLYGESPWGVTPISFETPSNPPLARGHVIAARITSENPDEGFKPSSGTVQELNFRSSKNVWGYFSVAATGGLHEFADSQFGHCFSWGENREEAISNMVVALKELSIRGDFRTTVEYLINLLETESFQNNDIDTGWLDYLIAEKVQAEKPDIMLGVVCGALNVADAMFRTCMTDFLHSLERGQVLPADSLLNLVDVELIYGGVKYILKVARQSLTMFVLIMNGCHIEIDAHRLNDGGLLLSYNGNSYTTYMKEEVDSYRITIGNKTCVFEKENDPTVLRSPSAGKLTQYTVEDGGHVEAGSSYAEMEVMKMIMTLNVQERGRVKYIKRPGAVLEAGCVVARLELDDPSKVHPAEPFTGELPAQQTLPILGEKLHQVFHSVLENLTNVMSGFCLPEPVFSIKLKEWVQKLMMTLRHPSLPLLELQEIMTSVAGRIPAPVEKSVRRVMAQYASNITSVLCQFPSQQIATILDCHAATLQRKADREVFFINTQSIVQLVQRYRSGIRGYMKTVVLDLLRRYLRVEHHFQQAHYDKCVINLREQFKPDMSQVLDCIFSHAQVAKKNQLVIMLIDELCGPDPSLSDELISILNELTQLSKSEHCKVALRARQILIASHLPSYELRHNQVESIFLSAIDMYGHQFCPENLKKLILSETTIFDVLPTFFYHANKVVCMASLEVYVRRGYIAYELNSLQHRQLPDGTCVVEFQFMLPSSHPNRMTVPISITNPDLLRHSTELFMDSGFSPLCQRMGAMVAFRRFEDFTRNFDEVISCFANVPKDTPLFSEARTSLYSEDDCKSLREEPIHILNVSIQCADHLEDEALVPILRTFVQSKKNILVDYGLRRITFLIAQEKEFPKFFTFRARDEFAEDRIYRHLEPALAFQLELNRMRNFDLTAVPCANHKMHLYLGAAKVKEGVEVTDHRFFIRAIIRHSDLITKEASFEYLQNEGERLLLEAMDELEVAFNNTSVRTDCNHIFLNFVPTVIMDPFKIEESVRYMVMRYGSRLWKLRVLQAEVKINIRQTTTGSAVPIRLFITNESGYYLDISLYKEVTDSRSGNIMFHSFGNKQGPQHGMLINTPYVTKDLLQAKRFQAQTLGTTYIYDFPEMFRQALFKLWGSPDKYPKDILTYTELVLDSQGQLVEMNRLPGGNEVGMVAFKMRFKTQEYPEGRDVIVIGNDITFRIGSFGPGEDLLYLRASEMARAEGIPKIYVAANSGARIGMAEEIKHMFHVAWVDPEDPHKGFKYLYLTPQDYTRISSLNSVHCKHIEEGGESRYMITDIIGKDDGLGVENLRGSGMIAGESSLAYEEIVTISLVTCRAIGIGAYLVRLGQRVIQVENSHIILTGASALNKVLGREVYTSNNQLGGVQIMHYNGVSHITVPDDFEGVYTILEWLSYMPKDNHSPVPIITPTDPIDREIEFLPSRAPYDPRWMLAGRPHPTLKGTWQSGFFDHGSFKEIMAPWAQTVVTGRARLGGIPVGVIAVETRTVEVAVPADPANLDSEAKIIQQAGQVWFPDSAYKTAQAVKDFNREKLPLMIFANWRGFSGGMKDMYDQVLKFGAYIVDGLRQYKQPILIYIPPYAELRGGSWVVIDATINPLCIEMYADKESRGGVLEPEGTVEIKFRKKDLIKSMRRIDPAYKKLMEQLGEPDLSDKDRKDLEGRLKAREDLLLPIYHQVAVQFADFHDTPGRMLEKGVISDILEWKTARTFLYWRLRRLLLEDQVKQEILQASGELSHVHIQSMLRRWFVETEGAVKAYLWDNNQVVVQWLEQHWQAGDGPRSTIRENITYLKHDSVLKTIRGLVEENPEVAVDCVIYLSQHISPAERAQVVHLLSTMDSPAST
fungal (fACC2), sequence (Q00955 whole entry): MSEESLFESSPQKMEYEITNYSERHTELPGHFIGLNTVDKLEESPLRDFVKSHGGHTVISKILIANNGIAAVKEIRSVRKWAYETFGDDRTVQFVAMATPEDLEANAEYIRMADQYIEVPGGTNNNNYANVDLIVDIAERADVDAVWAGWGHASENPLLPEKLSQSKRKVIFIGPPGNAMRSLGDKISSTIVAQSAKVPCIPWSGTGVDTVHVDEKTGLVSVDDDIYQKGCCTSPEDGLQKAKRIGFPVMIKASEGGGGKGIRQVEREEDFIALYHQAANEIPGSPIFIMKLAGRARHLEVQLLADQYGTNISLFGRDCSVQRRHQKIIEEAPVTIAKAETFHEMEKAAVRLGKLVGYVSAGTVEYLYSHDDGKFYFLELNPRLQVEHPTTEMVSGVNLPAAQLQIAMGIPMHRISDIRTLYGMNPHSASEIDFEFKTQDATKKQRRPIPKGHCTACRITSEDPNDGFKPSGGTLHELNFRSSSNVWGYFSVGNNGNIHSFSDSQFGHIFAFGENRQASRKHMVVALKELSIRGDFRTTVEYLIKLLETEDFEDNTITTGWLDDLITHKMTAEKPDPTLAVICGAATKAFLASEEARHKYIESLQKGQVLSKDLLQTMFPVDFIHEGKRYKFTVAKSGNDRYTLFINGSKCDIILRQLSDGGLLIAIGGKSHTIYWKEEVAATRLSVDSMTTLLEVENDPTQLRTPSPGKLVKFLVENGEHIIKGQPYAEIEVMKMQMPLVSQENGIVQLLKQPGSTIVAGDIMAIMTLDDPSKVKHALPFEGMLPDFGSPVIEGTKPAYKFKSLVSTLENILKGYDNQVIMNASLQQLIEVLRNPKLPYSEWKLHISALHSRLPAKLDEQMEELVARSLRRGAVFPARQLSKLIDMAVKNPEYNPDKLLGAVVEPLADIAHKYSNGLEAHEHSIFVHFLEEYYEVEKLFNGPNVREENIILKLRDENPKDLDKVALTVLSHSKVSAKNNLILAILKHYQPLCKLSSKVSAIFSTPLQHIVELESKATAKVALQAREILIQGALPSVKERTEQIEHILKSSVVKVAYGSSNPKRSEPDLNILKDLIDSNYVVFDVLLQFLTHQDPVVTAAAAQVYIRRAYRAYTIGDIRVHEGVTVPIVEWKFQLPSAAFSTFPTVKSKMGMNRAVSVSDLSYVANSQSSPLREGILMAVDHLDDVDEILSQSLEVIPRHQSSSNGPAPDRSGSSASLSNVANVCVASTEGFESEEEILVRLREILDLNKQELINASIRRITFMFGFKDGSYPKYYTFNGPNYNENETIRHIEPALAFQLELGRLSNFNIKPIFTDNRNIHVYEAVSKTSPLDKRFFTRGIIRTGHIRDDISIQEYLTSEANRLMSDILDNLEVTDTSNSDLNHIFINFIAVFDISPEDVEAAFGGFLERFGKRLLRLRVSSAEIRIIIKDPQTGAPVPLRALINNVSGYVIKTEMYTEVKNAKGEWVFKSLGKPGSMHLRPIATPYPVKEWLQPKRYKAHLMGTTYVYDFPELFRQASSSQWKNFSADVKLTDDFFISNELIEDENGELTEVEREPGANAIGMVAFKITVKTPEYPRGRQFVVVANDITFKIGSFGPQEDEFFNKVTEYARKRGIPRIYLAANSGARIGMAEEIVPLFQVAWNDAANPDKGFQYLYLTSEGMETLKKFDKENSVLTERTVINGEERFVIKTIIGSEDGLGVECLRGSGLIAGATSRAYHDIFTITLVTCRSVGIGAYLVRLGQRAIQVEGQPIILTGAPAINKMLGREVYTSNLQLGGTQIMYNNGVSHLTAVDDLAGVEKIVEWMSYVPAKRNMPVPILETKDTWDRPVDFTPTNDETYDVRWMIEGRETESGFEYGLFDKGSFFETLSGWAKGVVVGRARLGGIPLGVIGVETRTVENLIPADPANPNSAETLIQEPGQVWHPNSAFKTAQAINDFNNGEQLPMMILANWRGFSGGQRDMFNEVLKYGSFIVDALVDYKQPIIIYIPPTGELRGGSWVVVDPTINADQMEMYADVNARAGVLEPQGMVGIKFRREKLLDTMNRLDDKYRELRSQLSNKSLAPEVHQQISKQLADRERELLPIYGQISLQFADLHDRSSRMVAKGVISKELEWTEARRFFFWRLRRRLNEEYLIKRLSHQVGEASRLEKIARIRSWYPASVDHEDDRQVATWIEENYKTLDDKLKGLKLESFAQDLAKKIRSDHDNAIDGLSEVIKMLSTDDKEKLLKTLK

In the case of `COc1ccccc1[C@H](Cn1c(=O)n(C(C)(C)C(=O)NC(C)C)c(=O)c2c(C)c(-n3nccn3)sc21)OCCC#N` [Compound I-136, 2-[1-[(2R)-2-(2-cyanoethoxy)-2-(2-methoxyphenyl)ethyl]-5-methyl-2,4-dioxo-6-(2H-1,2,3-triazol-2-yl)-1H,2H,3H,4H-thieno[2,3-d]pyrimidin-3-yl]-2-methyl-N-(propan-2-yl)propanamide], the IC90 (Botrtyis cinerea (Bc); [5]) is reported as 0.08 µg/mL (≈ 0.138 µM), the IC90 [1, 6] is reported as 0.4 µg/mL (≈ 0.69 µM) and the IC50 (fungal (fACC2); Table 2a) is reported as 1 to 5 nM. For the same compound, the IC50 (fungal (fACC2); Table 2b, additional results) was 0.3 to 1 nM, the MIC (C. parapsilosis; [7]) was 0.25 to 1 µg/mL (≈ 0.431 to 1.73 µM) and the MIC (C. parapsilosis; [8]) was 0.25 to 1 µg/mL (≈ 0.431 to 1.73 µM). It also gave an IC90 (Rhizoctonia solani (Rs); [9]) of 0.08 µg/mL (≈ 0.138 µM), an MIC (C. albicans; [10]) of 0.25 to 1 µg/mL (≈ 0.431 to 1.73 µM) and an MIC (C. albicans; [11]) of 1.01 to 2 µg/mL (≈ 1.74 to 3.45 µM). For the same compound, the IC90 [2] was 0.08 µg/mL (≈ 0.138 µM), the IC50 (human (hACC2); Table 2a) was 5 to 10 nM and the IC50 (human (hACC2); Table 2b, additional results) was 5 to 10 nM. For the same compound, the IC90 [3, 12] was 0.08 µg/mL (≈ 0.138 µM), the IC90 (Septoria tritici (St); [13]) was 2 µg/mL (≈ 3.45 µM) and the IC90 (Diplodia maydis (Dm); [14]) was 0.08 µg/mL (≈ 0.138 µM). The MIC (C. krusei; [15]) was 0.06 to 0.24 µg/mL (≈ 0.104 to 0.414 µM), the MIC (C. krusei; [16]) was 0.25 to 1 µg/mL (≈ 0.431 to 1.73 µM) and the IC90 [4, 17] was 2 µg/mL (≈ 3.45 µM).
`COc1ccc(F)cc1[C@H](Cn1c(=O)n([C@H](C)C(=O)NC(C)C)c(=O)c2c(C)c(-n3nccn3)sc21)OCCC#N` [Compound I-138] showed an IC90 (Botrtyis cinerea (Bc); [5]) of 0.4 µg/mL (≈ 0.685 µM), an IC90 [1, 6] of 0.4 µg/mL (≈ 0.685 µM) and an IC50 (fungal (fACC2); Table 2a) of 1 to 5 nM. The IC50 (fungal (fACC2); Table 2b, additional results) was 0.3 to 1 nM, the MIC (C. parapsilosis; [7]) was 0.25 to 1 µg/mL (≈ 0.428 to 1.71 µM) and the MIC (C. parapsilosis; [8]) was 1.01 to 2 µg/mL (≈ 1.73 to 3.43 µM). For the same compound, the IC90 (Rhizoctonia solani (Rs); [9]) was 0.08 µg/mL (≈ 0.137 µM), the MIC (C. albicans; [10]) was 0.25 to 1 µg/mL (≈ 0.428 to 1.71 µM) and the MIC (C. albicans; [11]) was greater than 4.01 µg/mL. It also gave an IC90 [2] of 0.08 µg/mL (≈ 0.137 µM), an IC50 (human (hACC2); Table 2a) of 1 to 5 nM and an IC50 (human (hACC2); Table 2b, additional results) of 1 to 5 nM. The IC90 [3, 12] was 0.08 µg/mL (≈ 0.137 µM), the IC90 (Septoria tritici (St); [13]) was 2 µg/mL (≈ 3.43 µM) and the IC90 (Diplodia maydis (Dm); [14]) was 0.08 µg/mL (≈ 0.137 µM). The MIC (C. krusei; [15]) was 0.25 to 1 µg/mL (≈ 0.428 to 1.71 µM), the MIC (C. krusei; [16]) was 2.01 to 4 µg/mL (≈ 3.44 to 6.85 µM) and the IC90 [4, 17] was 2 µg/mL (≈ 3.43 µM).
In the case of `COc1ccc(F)cc1[C@H](Cn1c(=O)n([C@H](C)C(=O)N(C)C(C)C)c(=O)c2c(C)c(-n3nccn3)sc21)OCCC#N` [Compound I-139], the IC90 (Botrtyis cinerea (Bc); Botrtyis cinerea, read-out: Concentration at 90% Inhibition Bc) is reported as 0.4 µg/mL (≈ 0.669 µM), the IC90 ([1]; growth inhibition at 48 hours vs 2% DMSO control, read-out: Concentration at 90% Inhibition Fv) is reported as 0.4 µg/mL (≈ 0.669 µM) and the IC50 (fungal (fACC2); Table 2a) is reported as 5 to 10 nM. The IC50 (fungal (fACC2); Table 2b, additional results) was 1 to 5 nM, the MIC (C. parapsilosis; Table 3a, ATCC 22019, 3 replicates, MIC recorded at 48 h, read-out: MIC, C. parapsilosis ATCC 22019) was 1.1 to 2 µg/mL (≈ 1.84 to 3.35 µM) and the MIC (C. parapsilosis; Table 3b (additional results), ATCC 22019, 3 replicates, MIC recorded at 48 h, read-out: MIC, C. parapsilosis ATCC 22019) was 2.01 to 4 µg/mL (≈ 3.36 to 6.69 µM). It also gave an IC90 (Rhizoctonia solani (Rs); mycelial plugs, growth inhibition at 48 hours vs 2% DMSO control, read-out: Concentration at 90% Inhibition Rs) of 0.08 µg/mL (≈ 0.134 µM), an MIC (C. albicans; Table 3a, ATCC 90028, 3 replicates, MIC recorded at 48 h, read-out: MIC, C. albicans ATCC 90028) of 0.25 to 1 µg/mL (≈ 0.418 to 1.67 µM) and an MIC (C. albicans; Table 3b (additional results), ATCC 90028, 3 replicates, MIC recorded at 48 h, read-out: MIC, C. albicans ATCC 90028) of 2.01 to 4 µg/mL (≈ 3.36 to 6.69 µM). For the same compound, the IC90 ([2]; Fusarium moniliforme, growth inhibition at 48 hours vs 2% DMSO control) was 0.4 µg/mL (≈ 0.669 µM), the IC50 (human (hACC2); Table 2a) was 5 to 10 nM and the IC50 (human (hACC2); Table 2b, additional results) was 1 to 5 nM. For the same compound, the IC90 ([3]; Collectotrichum graminicola, read-out: Concentration at 90% Inhibition Cg) was 0.4 µg/mL (≈ 0.669 µM), the IC90 (Septoria tritici (St); Septoria tritici, read-out: Concentration at 90% Inhibition St) was greater than 50 µg/mL and the IC90 (Diplodia maydis (Dm); Diplodia maydis, read-out: Concentration at 90% Inhibition Dm) was 0.08 µg/mL (≈ 0.134 µM). The MIC (C. krusei; Table 3a, ATCC 6258, 3 replicates, MIC recorded at 48 h, read-out: MIC, C. krusei ATCC 6258) was 0.25 to 1 µg/mL (≈ 0.418 to 1.67 µM), the MIC (C. krusei; Table 3b (additional results), ATCC 6258, 3 replicates, MIC recorded at 48 h, read-out: MIC, C. krusei ATCC 6258) was 2.01 to 4 µg/mL (≈ 3.36 to 6.69 µM) and the IC90 ([4]; growth inhibition at 48 hours vs 2% DMSO control, read-out: Concentration at 90% Inhibition Pc) was greater than 50 µg/mL.

Source: US10800791B2, “Triazole ACC inhibitors and uses thereof” (Gilead Apollo, LLC, priority 2015, dated 2020)
